In patent US5001258A, “Antibiotic, fumifungin, a microbial process for the preparation thereof, and the use thereof as a pharmaceutical” (Hoechst Aktiengesellschaft, priority 1987, dated 1991):

Legend:
[1] = tested on: Alternaria solani; assay: MIC of fumifungin, growth inhibition of Alternaria solani; type: cell-based
[2] = tested on: fungi; assay: fungicidal properties; type: cell-based
[3] = tested on: bacteria; assay: bactericidal properties; type: cell-based
[4] = tested on: Wild yeast; assay: MIC of fumifungin, growth inhibition of Wild yeast; type: cell-based
[5] = tested on: Cladosporium resinae; assay: MIC of fumifungin, growth inhibition of Cladosporium resinae; type: cell-based; settings: Amorphotheca resinae
[6] = tested on: Candida albicans; assay: MIC of fumifungin, growth inhibition of Candida albicans; type: cell-based
[7] = tested on: Aspergillus niger; assay: MIC of fumifungin, growth inhibition of Aspergillus niger; type: cell-based
[8] = Solubility (physicochemical properties of fumifungin); settings: solvents in which soluble
[9] = tested on: Cercospora beticola; assay: MIC of fumifungin, growth inhibition of Cercospora beticola; type: cell-based
[10] = tested on: Saccharomyces cerevisiae; assay: MIC of fumifungin, growth inhibition of Saccharomyces cerevisiae; type: cell-based

With `CCCCCCC(O)CCCCCCC=CC(O)C(OC(C)=O)C(O)C(N)C(=O)O` (stereo not shown) [fumifungin, 2-amino-4-acetoxy-3,5,14-tri-hydroxy-Δ^6-eicosenoic acid] as the molecule, how does the MIC [1] read?
Its MIC is 31.2 mg/mL.

What about the fungicidal properties [2] of the same molecule?
The fungicidal properties was “fungicidal”.

What about the bactericidal properties [3] of the same molecule?
Its bactericidal properties is “bactericidal”.

And the MIC [4]?
Its MIC is 62.5 mg/mL.

And the MIC [5]?
The MIC was greater than 900 µg/mL.

And the MIC [6]?
Its MIC is 62.5 mg/mL.

What about the MIC [7] of the same molecule?
Its MIC is greater than 7800 µg/mL.

What about the Solubility [8] of the same molecule?
Its Solubility is “methanol, DMSO”.

And the MIC [9]?
Its MIC is 900 µg/mL.

What about the MIC [10] of the same molecule?
The MIC was 62.5 mg/mL.
